Source: patent US20210254056A1, “IDENTIFICATION AND TARGETED MODULATION OF GENE SIGNALING NETWORKS” (CAMP4 THERAPEUTICS CORPORATION, priority 2017, published 2021)

System: hepatocytes
Experiment: RNA-seq of hepatocytes treated with Phase III failure compounds
Experimental: RNA-seq was performed to determine the effects of the compounds on hepatocytes.
Significance was determined by the criteria of FPKM≥0.5, a log 2(fold-change)≥1, and a […].

Cn1cnc2c(F)c(Nc3ccc(Br)cc3Cl)c(C(=O)NOCCO)cc21 [Selumetinib]
RNA-seq results, CYP2B6 expression: 0.38 | RNA-seq results, CYP2C19 expression: 0.76 | RNA-seq results, CYP2D6 expression: 0.03 | RNA-seq results, CYP3A4 expression: 0.08 | RNA-seq results, CYP7B1 expression: −0.15 | RNA-seq results, CYP39A1 expression: −0.27 | RNA-seq results: CYP2B6 expression: −0.08 | RNA-seq results: CYP2C19 expression: 0.1 | RNA-seq results: CYP2D6 expression: 0.16 | RNA-seq results: CYP3A4 expression: 0.11 | RNA-seq results: CYP7B1 expression: −0.3 | RNA-seq results: CYP39A1 expression: 0.08 | RNA-seq results: A1BG expression (gene A1BG, hepatocytes): 0.00 | RNA-seq results: AGTR1 expression (gene AGTR1, hepatocytes): −0.55 | RNA-seq results: AGXT expression (gene AGXT, hepatocytes): 0.22 | RNA-seq results: AHI1 expression (gene AHI1, hepatocytes): 0.01 | RNA-seq results: AMPD3 expression (gene AMPD3, hepatocytes): 0.22 | RNA-seq results: AMT expression (gene AMT, hepatocytes): 0.29 | RNA-seq results: ANGPTL3 expression (gene ANGPTL3, hepatocytes): −0.67 | RNA-seq results: ANKS4B expression (gene ANKS4B, hepatocytes): −0.06 | RNA-seq results: ANKS6 expression (gene ANKS6, hepatocytes): −0.02 | RNA-seq results: ANPEP expression (gene ANPEP, hepatocytes): 0.04 | RNA-seq results: AOC2 expression (gene AOC2, hepatocytes): 0.28 | RNA-seq results: APOA2 expression (gene APOA2, hepatocytes): −0.45 | RNA-seq results: APOA5 expression (gene APOA5, hepatocytes): 0.13 | RNA-seq results: APOB expression (gene APOB, hepatocytes): −0.10 | RNA-seq results: COG5 expression (gene COG5, hepatocytes): −0.14 | RNA-seq results: COG6 expression (gene COG6, hepatocytes): 0.1 | RNA-seq results: COL1A1 expression (gene COL1A1, hepatocytes): 0.41 | RNA-seq results: COX6A1 expression (gene COX6A1, hepatocytes): 0.02 | RNA-seq results: CP expression (gene CP, hepatocytes): 0.26 | RNA-seq results: CPS1 expression (gene CPS1, hepatocytes): 0.52 | RNA-seq results: CPT1A expression (gene CPT1A, hepatocytes): 0.19 | RNA-seq results: CPT2 expression (gene CPT2, hepatocytes): −0.2 | RNA-seq results: CROT expression (gene CROT, hepatocytes): −0.4 | RNA-seq results: CSPP1 expression (gene CSPP1, hepatocytes): −0.14 | RNA-seq results: CTC1 expression (gene CTC1, hepatocytes): 0.03 | RNA-seq results: CTDSP2 expression (gene CTDSP2, hepatocytes): −0.14 | RNA-seq results: CTH expression (gene CTH, hepatocytes): 0.67 | RNA-seq results: CTNS expression (gene CTNS, hepatocytes): 0.69 | RNA-seq results: CTSF expression (gene CTSF, hepatocytes): 0.19 | RNA-seq results: CTSK expression (gene CTSK, hepatocytes): 0.08 | RNA-seq results: CYB5A expression (gene CYB5A, hepatocytes): −0.09 | RNA-seq results: CYB5R3 expression (gene CYB5R3, hepatocytes): 0.1 | RNA-seq results: CYP27A1 expression (gene CYP27A1, hepatocytes): 0.14 | RNA-seq results: DAO expression (gene DAO, hepatocytes): −0.11 | RNA-seq results: DBT expression (gene DBT, hepatocytes): −0.16 | RNA-seq results: DCDC2 expression (gene DCDC2, hepatocytes): −1.04 | RNA-seq results: DCXR expression (gene DCXR, hepatocytes): 0.01 | RNA-seq results: FABP1 expression (gene FABP1, hepatocytes): 0.06 | RNA-seq results: FADD expression (gene FADD, hepatocytes): −0.08 | RNA-seq results: FAM111A expression (gene FAM111A, hepatocytes): 0.12 | RNA-seq results: FAM111B expression (gene FAM111B, hepatocytes): −1.27 | RNA-seq results: FAN1 expression (gene FAN1, hepatocytes): −0.37 | RNA-seq results: FARS2 expression (gene FARS2, hepatocytes): −0.21 | RNA-seq results: FASLG expression (gene FASLG, hepatocytes): −0.55 | RNA-seq results: FGA expression (gene FGA, hepatocytes): 0.07 | RNA-seq results: FGD1 expression (gene FGD1, hepatocytes): −0.4 | RNA-seq results: FGFR2 expression (gene FGFR2, hepatocytes): −0.97 | RNA-seq results: FIG4 expression (gene FIG4, hepatocytes): 0.29 | RNA-seq results: FIS1 expression (gene FIS1, hepatocytes): −0.06 | RNA-seq results: FTCD expression (gene FTCD, hepatocytes): 0.18 | RNA-seq results: FTH1 expression (gene FTH1, hepatocytes): 0.45 | RNA-seq results: FUCA1 expression (gene FUCA1, hepatocytes): 0.02 | RNA-seq results: FXN expression (gene FXN, hepatocytes): −0.33 | RNA-seq results: G6PC3 expression (gene G6PC3, hepatocytes): −0.17 | RNA-seq results: G6PC expression (gene G6PC, hepatocytes): 1.05 | RNA-seq results: G6PD expression (gene G6PD, hepatocytes): 0.7 | RNA-seq results: GALK1 expression (gene GALK1, hepatocytes): 0.05 | RNA-seq results: GALK2 expression (gene GALK2, hepatocytes): 0.08 | RNA-seq results: GALT expression (gene GALT, hepatocytes): 0.37 | RNA-seq results: GATA6 expression (gene GATA6, hepatocytes): −0.01 | RNA-seq results: GATM expression (gene GATM, hepatocytes): −0.21 | RNA-seq results: GBA expression (gene GBA, hepatocytes): 0.33 | RNA-seq results: GBE1 expression (gene GBE1, hepatocytes): 0.06 | RNA-seq results: GCH1 expression (gene GCH1, hepatocytes): 0.02 | RNA-seq results: GCKR expression (gene GCKR, hepatocytes): 0.43 | RNA-seq results: GCLC expression (gene GCLC, hepatocytes): 0.07 | RNA-seq results: GOSH expression (gene GOSH, hepatocytes): −0.26 | RNA-seq results: RRM2B (gene RRM2B, hepatocytes): −0.30 | RNA-seq results: RSAD1 (gene RSAD1, hepatocytes): −0.06 | RNA-seq results: SAMHD1 (gene SAMHD1, hepatocytes): −0.29 | RNA-seq results: SC5D (gene SC5D, hepatocytes): −0.23 | RNA-seq results: SCARB1 (gene SCARB1, hepatocytes): 0.08 | RNA-seq results: SCN9A (gene SCN9A, hepatocytes): 0.14 | RNA-seq results: SDCCAG8 (gene SDCCAG8, hepatocytes): −0.25 | RNA-seq results: SEPN1 (gene SEPN1, hepatocytes): −0.10 | RNA-seq results: SERAC1 (gene SERAC1, hepatocytes): −0.29 | RNA-seq results: SERPINA1 (gene SERPINA1, hepatocytes): 0.01 | RNA-seq results: SERPING1 (gene SERPING1, hepatocytes): −0.11 | RNA-seq results: SERPINI1 (gene SERPINI1, hepatocytes): −0.36 | RNA-seq results: SETBP1 (gene SETBP1, hepatocytes): 0.22 | RNA-seq results: SFXN4 (gene SFXN4, hepatocytes): −0.33 | RNA-seq results: SLC10A1 (gene SLC10A1, hepatocytes): 0.00 | RNA-seq results: SLC10A3 (gene SLC10A3, hepatocytes): 0.23 | RNA-seq results: SLC10A5 (gene SLC10A5, hepatocytes): 0.63 | RNA-seq results: SLC10A7 (gene SLC10A7, hepatocytes): −0.35 | RNA-seq results: SLC11A2 (gene SLC11A2, hepatocytes): −0.26 | RNA-seq results: SLC19A1 (gene SLC19A1, hepatocytes): −0.42 | RNA-seq results: SLC19A2 (gene SLC19A2, hepatocytes): 0.22 | RNA-seq results: SLC19A3 (gene SLC19A3, hepatocytes): 0.00 | RNA-seq results: SLC22A1 (gene SLC22A1, hepatocytes): −0.07 | RNA-seq results: SLC22A5 (gene SLC22A5, hepatocytes): 0.32 | RNA-seq results: SLC25A1 (gene SLC25A1, hepatocytes): 0.11 | RNA-seq results: SLC25A10 (gene SLC25A10, hepatocytes): −0.12 | RNA-seq results: SLC25A12 (gene SLC25A12, hepatocytes): −0.11 | RNA-seq results: SLC25A13 (gene SLC25A13, hepatocytes): −0.15 | RNA-seq results: SLC25A15 (gene SLC25A15, hepatocytes): −0.21 | RNA-seq results: SLC25A19 (gene SLC25A19, hepatocytes): −0.35 | RNA-seq results: SLC25A20 (gene SLC25A20, hepatocytes): −0.28 | RNA-seq results: SLC25A29 (gene SLC25A29, hepatocytes): 0.25 | RNA-seq results: SLC25A32 (gene SLC25A32, hepatocytes): −0.44
